Measurements as given in ChEMBL document CHEMBL3779828, “Discovery of the Aryl-phospho-indole IDX899, a Highly Potent Anti-HIV Non-nucleoside Reverse Transcriptase Inhibitor” (J Med Chem, 2016).

What was measured:
[1] = system: Human immunodeficiency virus 1; test: Antiviral activity against HIV1 harboring reverse transcriptase Y181C/K103N double mutant infected in primary MT4 cells assessed as inhibition of virus-induced cytopathogenicity after 4 days by MTS assay; assay type: functional, organism-based; conditions: Human immunodeficiency virus 1, MT4, 96 h
[2] = system: Human immunodeficiency virus 1; test: Antiviral activity against HIV1 harboring reverse transcriptase Y181C mutant infected in primary MT4 cells assessed as inhibition of virus-induced cytopathogenicity after 4 days by MTS assay; assay type: functional, organism-based; conditions: Human immunodeficiency virus 1, MT4, 96 h
[3] = Antiviral activity against HIV1 BH10 harboring wild type reverse transcriptase infected in primary MT4 cells assessed as inhibition of virus-induced cytopathogenicity after 4 days by MTS assay; assay type: functional, cell-based, Human immunodeficiency virus type 1 BH10; conditions: Human immunodeficiency virus 1, MT4, 96 h
[4] = system: Human immunodeficiency virus 1; test: Antiviral activity against HIV1 harboring reverse transcriptase K103N mutant infected in primary MT4 cells assessed as inhibition of virus-induced cytopathogenicity after 4 days by MTS assay; assay type: functional, organism-based; conditions: Human immunodeficiency virus 1, MT4, 96 h
[5] = Antiviral activity against HIV1 BH10 harboring wild type reverse transcriptase infected in secondary MT4 cells assessed as inhibition of virus-induced cytopathogenicity after 4 days by MTS assay; assay type: functional, cell-based, Human immunodeficiency virus type 1 BH10; conditions: Human immunodeficiency virus 1, MT4, 96 h
[6] = system: Human immunodeficiency virus 1; test: Antiviral activity against HIV1 harboring reverse transcriptase Y181C mutant infected in secondary MT4 cells assessed as inhibition of virus-induced cytopathogenicity after 4 days by MTS assay; assay type: functional, organism-based; conditions: Human immunodeficiency virus 1, MT4, 96 h
[7] = system: Human immunodeficiency virus 1; test: Antiviral activity against HIV1 harboring reverse transcriptase K103N mutant infected in secondary MT4 cells assessed as inhibition of virus-induced cytopathogenicity after 4 days by MTS assay; assay type: functional, organism-based; conditions: Human immunodeficiency virus 1, MT4, 96 h
[8] = system: Human immunodeficiency virus 1; test: Antiviral activity against HIV1 harboring reverse transcriptase Y181C/K103N double mutant infected in secondary MT4 cells assessed as inhibition of virus-induced cytopathogenicity after 4 days by MTS assay; assay type: functional, organism-based; conditions: Human immunodeficiency virus 1, MT4, 96 h
[9] = Aqueous solubility of the compound at pH 7; assay type: physicochemical; conditions: aqueous medium
[10] = Selectivity ratio of EC50 for HIV1 harboring reverse transcriptase Y181C/K103N double mutant to EC50 for HIV1 BH10 harboring wild type reverse transcriptase; assay type: functional

| Structure (SMILES) | EC50 [1] | EC50 [2] | EC50 [3] | EC50 [4] | EC50 [5] | EC50 [6] | EC50 [7] | EC50 [8] | solubility [9] | Ratio EC50 [10] |
| --- | --- | --- | --- | --- | --- | --- | --- | --- | --- | --- |
| COP(=O)(c1cc(C)cc(CCC#N)c1)c1c(C(N)=O)[nH]c2ccc(Cl)cc12 (stereo not given) | 28.5 nM | 0.7 nM | 0.7 nM | 3.5 nM |  |  |  |  |  |  |
| COP(=O)(c1cccc(/C=C/C#N)c1)c1c(C(N)=O)[nH]c2ccc(Cl)cc12 (stereo not given) |  |  |  |  | 3.4 nM | 3.2 nM | 1.8 nM | 49.5 nM |  |  |
| COc1cc(C)cc(P(=O)(OC)c2c(C(N)=O)[nH]c3ccc(Cl)cc23)c1 (stereo not given) | 663 nM | 9 nM | 0.4 nM | 23 nM |  |  |  |  |  |  |
| COP(=O)(c1cc(F)cc(F)c1)c1c(C(N)=O)[nH]c2ccc(Cl)cc12 (stereo not given) | 642 nM | 6.5 nM | 0.7 nM | 25.5 nM |  |  |  |  |  |  |
| COP(=O)(c1cncc(/C=C/C#N)c1)c1c(C(N)=O)[nH]c2ccc(Cl)cc12 (stereo not given) | 192 nM | 2.5 nM | 1 nM | 9.5 nM |  |  |  |  |  |  |
| COP(=O)(c1cccs1)c1c(C(N)=O)[nH]c2ccc(Cl)cc12 (stereo not given) | > 1000 nM | 3.4 nM | 0.3 nM | 8.6 nM |  |  |  |  |  |  |
| O=C1Nc2ccc(Cl)cc2[C@@](C#CC2CC2)(C(F)(F)F)O1 [EFAVIRENZ] | 58 nM | 1.8 nM | 0.7 nM | 37 nM |  |  |  |  | < 0.5 µM |  |
| COP(=O)(c1cccc(-n2cccn2)c1)c1c(C(N)=O)[nH]c2ccc(Cl)cc12 (stereo not given) | > 1000 nM | 59 nM | 4.5 nM | 102 nM |  |  |  |  |  |  |
| COP(=O)(c1cc(C)cc(OCC#N)c1)c1c(C(N)=O)[nH]c2ccc(Cl)cc12 (stereo not given) | 111 nM | 8.7 nM | 0.08 nM | 1.8 nM |  |  |  |  |  | > 1000 |
| COP(=O)(c1cc(C)cc(/C=C/C#N)c1)c1c(C(N)=O)[nH]c2ccc(Cl)cc12 (racemic) | 16.6 nM | 3 nM | 2.9 nM | 3 nM |  |  |  |  |  |  |
| COP(=O)(c1cc(C)cc(C#N)c1)c1c(C(N)=O)[nH]c2ccc(Cl)cc12 (stereo not given) | 162 nM | 3.8 nM | 1 nM | 18.4 nM |  |  |  |  |  |  |
| COP(=O)(c1cc(Cl)cc(Cl)c1)c1c(C(N)=O)[nH]c2ccc(Cl)cc12 (stereo not given) | 248 nM | 1.7 nM | 0.3 nM | 19.9 nM |  |  |  |  |  |  |
